From publication PMC5403950, “Mechanism Underlying the Reversal of Drug Resistance in P-Glycoprotein-Expressing Leukemia Cells by Pinoresinol and the Study of a Derivative” (Frontiers in Pharmacology, 2017)

Tests used:
[1] = system: Lucena 1 cells; assay: Multidrug resistance reversal assay (MTT) with DOX; type: cell-based, human
Protocol: (§1) Briefly, 5 × 10^4 Lucena 1 cells per well were seeded in 96-well plates containing RPMI-1640 medium in the presence of DOX alone or in combination with the tested compounds dissolved in ethanol or acetonitrile as appropriate. DOX was added to reach final concentrations of 0.05–431 μM. The compounds were assayed at the highest non-toxic concentration observed in both cell lines (cytotoxicity ≤ 20%, Cytotoxicity (%) = [1-(Optical density treatment-Optical density DMSO)/(Optical density control-Optical density DMSO)] x 100, determined by MTT proliferation assay (Joray et al., [2015]); maximum concentration tested 40 μg mL^−1). Following the primary screening, compounds 14 and 16 (dissolved in ethanol) were tested at serial dilutions. […] Subsequently, the supernatants were removed and replaced with 100 μL DMSO to solubilize the resulting purple formazan crystals produced from metabolically viable cells. Absorbance was measured with an iMark micro-plate reader (Bio-Rad, USA) at 595 nm.
(§2) The same reversal assay was performed in K562 cells, in order to discard a decrease in the IC50 of DOX due to effects other than P-gp inhibition. The reversal fold (RF) values for the tested compounds, which indicate their capacity to reduce resistance to DOX, were calculated by dividing the IC50 of DOX alone by the IC50 of DOX in the presence of the tested compounds (Xu et al., [2014]).

[2] = system: K562 cells; assay: Multidrug resistance reversal assay (MTT) with DOX, sensitive parental line; type: cell-based, human; details: compound at 14 μM
Protocol: as §1, §2

[3] = target: T1, P-gp (Homo sapiens, UniProt P08183); assay: in vitro; details: Lucena 1 cells, probe doxorubicin (DOX) 5 μM
T1 sequence (P08183 whole entry): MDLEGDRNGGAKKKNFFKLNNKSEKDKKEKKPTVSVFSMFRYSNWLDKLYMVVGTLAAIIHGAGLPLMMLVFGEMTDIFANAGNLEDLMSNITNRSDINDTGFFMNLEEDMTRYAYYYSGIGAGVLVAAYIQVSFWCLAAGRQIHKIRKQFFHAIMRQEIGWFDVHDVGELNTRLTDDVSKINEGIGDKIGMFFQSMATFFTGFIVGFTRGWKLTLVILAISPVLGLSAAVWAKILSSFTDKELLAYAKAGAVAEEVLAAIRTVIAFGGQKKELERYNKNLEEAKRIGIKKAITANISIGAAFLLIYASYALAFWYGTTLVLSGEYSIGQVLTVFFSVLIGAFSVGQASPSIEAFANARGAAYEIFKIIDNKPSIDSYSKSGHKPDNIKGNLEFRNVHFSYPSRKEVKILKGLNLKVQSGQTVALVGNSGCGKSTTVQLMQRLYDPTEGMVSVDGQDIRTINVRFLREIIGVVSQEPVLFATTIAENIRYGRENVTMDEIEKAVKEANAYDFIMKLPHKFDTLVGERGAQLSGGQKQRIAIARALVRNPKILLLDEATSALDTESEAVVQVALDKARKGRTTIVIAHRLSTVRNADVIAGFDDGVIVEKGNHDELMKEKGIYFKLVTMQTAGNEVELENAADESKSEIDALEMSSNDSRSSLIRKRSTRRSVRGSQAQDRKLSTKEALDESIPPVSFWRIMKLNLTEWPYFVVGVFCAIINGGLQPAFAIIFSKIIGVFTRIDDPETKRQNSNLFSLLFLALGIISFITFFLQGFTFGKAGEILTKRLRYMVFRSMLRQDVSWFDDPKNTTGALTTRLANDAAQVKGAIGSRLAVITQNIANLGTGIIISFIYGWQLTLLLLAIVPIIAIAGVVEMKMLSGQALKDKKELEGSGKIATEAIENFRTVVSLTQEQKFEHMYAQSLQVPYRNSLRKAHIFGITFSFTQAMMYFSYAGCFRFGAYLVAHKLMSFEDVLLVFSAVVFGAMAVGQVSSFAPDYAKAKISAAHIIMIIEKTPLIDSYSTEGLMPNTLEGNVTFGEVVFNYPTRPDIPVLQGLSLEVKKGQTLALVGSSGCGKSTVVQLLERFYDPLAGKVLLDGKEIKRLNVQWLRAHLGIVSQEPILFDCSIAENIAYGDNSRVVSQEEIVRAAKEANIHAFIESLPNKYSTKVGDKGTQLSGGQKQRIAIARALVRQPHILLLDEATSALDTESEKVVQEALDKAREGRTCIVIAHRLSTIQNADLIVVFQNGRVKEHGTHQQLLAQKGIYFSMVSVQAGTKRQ

[4] = target: T1, P-gp; details: Lucena 1; 1 h pre-incubation, 5 μM DOX 1 h
[5] = system: K562 cells; assay: Doxorubicin intracellular accumulation assay (flow cytometry), K562; type: cell-based, human; details: up to the maximum concentration evaluated
Excerpt: […]. […] Viability controls were included in all the experiments.

[6] = system: peripheral blood mononuclear cells (PBMC); assay: Cytotoxicity on peripheral blood mononuclear cells (MTT); type: cell-based, human; details: PHA 10 μg mL−1, 48 h, confidence limits in brackets
Protocol: (§3) The cytotoxicity of 14 and 16 on peripheral blood mononuclear cells (PBMC) was evaluated by MTT assay (Joray et al., [2015]). PBMC were collected from fresh heparinized blood and separated by density gradient centrifugation (Ficoll®) as described by Rennó et al. ([2008]). As the current study required samples from healthy human volunteer donors, ethical approval was provided by the Catholic University of Córdoba Research Ethics Board. Signed informed consents were obtained from donors. […] Absorbance (Abs) and percentage of cytotoxicity were determined as described above and the IC50 values were calculated. The experiment was carried out in two separate stages.

[7] = as above; type: cell-based, human; details: human, peripheral blood mononuclear cells (PBMC), PHA 10 μg mL−1, confidence limits in brackets
Protocol: as §3

For COc1cc([C@H]2OC[C@]3(OC(C)=O)[C@@H](c4ccc(O)c(OC)c4)OC[C@H]23)ccc1O [Compound 16, 1-acetoxy-(+)-pinoresinol], which “Minimum effective concentration (MEC) in the reversal assay (potentiation of DOX toxicity from)” value ([1]; Lucena 1, DOX) is on record?
The value was 0.11 µM.

What about the “RF Lucena 1” value ([1]; compound at 0.11 μM, DOX) of the same molecule?
The value was 1.4.

And the “RF Lucena 1” value ([1]; compound at 14 μM, DOX)?
The value was 22.7.

What about the “Effectiveness of 16 relative to 14 according to the MECs” value ([1]; reversal and accumulation assays) of the same molecule?
The value was 64 times.

And the “Effect on DOX activity in K562” value [2]?
Its value is “no potentiation”.

What about the “RF K562” value ([2]; DOX) of the same molecule?
Its value is 1.05 ± 0.14.

And the activity at 0.87 µM [3]?
Its activity at 0.87 µM is 62%.

What about the activity at 14 µM [3] of the same molecule?
Its activity at 14 µM is 141%.

And the “Minimum effective concentration (MEC) in the DOX accumulation assay” value [4]?
Its value is 0.87 µM.

And the “DOX accumulation in K562” value [5]?
The value was “no increase in DOX accumulation”.

What about the IC50 [6] of the same molecule?
The IC50 was 103 µM.

What about the IC50 at 48 h [7] of the same molecule?
Its IC50 at 48 h is 103 µM.
